According to patent US20030232102A1, “Total glycosides of paeony, method to prepare the same and uses thereof” (priority 2001, published 2003):

System: patients with rheumatoid arthritis
Experiment: Phase II clinical study in rheumatoid arthritis: effectiveness (symptoms, physical examination, comprehensive evaluation)
Type: in vivo, human
Set-up: ESR Reduced to norm., % of cases / CRP Reduced to Norm., % of cases / RF Reduced to norm., % of cases: concentration or dose not given beside the values
Conditions: for AGS 50% increased, % of cases / AGS 50% increased, cases / CRP 50% reduced, % of cases / CRP 50% reduced, cases / CRP Reduced to Norm., % of cases / CRP Reduced to Norm., cases / ESR 50% reduced, % of cases / ESR 50% reduced, cases / ESR Reduced to norm., % of cases / ESR Reduced to norm., cases / ITJ 50% reduced, % of cases / ITJ 50% reduced, cases / ITJ Disappeared, % of cases / ITJ Disappeared, cases / MR 50% reduced, % of cases / MR 50% reduced, cases / MR Disappeared, % of cases / MR Disappeared, cases / NSJ 50% reduced, % of cases / NSJ 50% reduced, cases / NSJ Disappeared, % of cases / NSJ Disappeared, cases / RF 2 dilutions lower, % of cases / RF 2 dilutions lower, cases / RF Reduced to norm., cases: double blinded
Experimental: It was a multiple-centered, randomized, parallel, positive controlled Phrase II clinical study.
All clinical studies except the above mentioned 120 cases were conducted in a single-blind condition.
1) Age 18˜65, male or female who agreed to the investigational treatment for 12 weeks to 6 months. History of rheumatoid arthritis was within 3 years.
2) Documented Rheumatoid Arthritis based on a diagnostic criteria of 1987 Revised ARA Criteria for the Classification of Rheumatoid Arthritis
3) Diagnosis of a typical active stage of RA: A patient is said to be on an active stage of RA if he or she has satisfied at least 4 of the following 5 items.
2) Patient who quitted the treatment for the ineffectiveness 7 days after the start of administration was included in the efficacy analysis. Patient who quitted the treatment for the side effects was not included in the efficacy analysis but the safety analyses.
1) The placebo run-in period: Seven days before administration, the selected patients stopped using NSAIDs and took a placebo instead.
4) For the double-blinded study, patients in both groups would be given capsules and tablets in same shapes, odors and amount. Placebo of capsule or tablet were included. Neither doctors nor patients can tell the group of treatment from the other.
5) No analgesics, anti-inflammation drugs, immune regulatory agents or muscle relaxants were allowed during the period of study. Acetaminophen could be used when necessary. If a physical therapy was started before enrollment, it was allowed to be continued, yet, it should be taken all the way during the period of clinical study.
1) Pain at rest: patients were asked to scale the degree of pain with a ruler [drawing 1]
2) Morning stiffness: Patients were requested to make notes on duration of their morning joint stiffness, a time span from its appearance to recovery in minutes every morning. The doctors should evaluate their record sheets by questioning them. For example “Do you fell stiff in any of your joints? (today, these 2 days)” When get a “yes” in answer, then “when did you get up today?” and “when does the stiffness be gone?”
3) Swelling of joints: Take count of the index of joint swelling by summing up the degree number of each joint.
0=normal; 1=swelling soft tissues (synovium) without hydrarthrus; 2=swelling soft tissues (synovium) with hydrarthrus.
4) Tenderness of joints: Take count of the index of joint tenderness by summing up the degree number of each joint:
5) Grip strength: Fold the arm belt of a sphygmomanometer twice and seal it in a small cloth bag suitable for a hand to hold. Aerates the belt in pressure of 20 mm Hg. Patients were asked to grip the bag with their not braced left and right hand, the grip strength is the average pressures in mm Hg for three times.
6) Time consumed for a 15 meters' walk (Seconds): Time started from a calm standing to the final of 15 meters. The average of three times.
7) General joint function (criteria of ARA):
8) Self-scoring and physician's grading on disease conditions: Both patients and doctors were required to submit their score sheet every time on follow-up survey. The scoring was made upon following criteria:
9) Patient's general condition: condition on the physical strength, sleep and appetite.
No effect: less than 30% improvement in symptoms and physical signs.
Improved: About 50% improvement in symptoms and physical signs (including general conditions in physical strength, sleep and appetite).

[1] = double blind, n = 60 per group, 4 weeks
[2] = double blind, n = 60 per group, 8 weeks
[3] = double blind, n = 60 per group, 12 weeks

SMILES: CN(Cc1cnc2nc(N)nc(N)c2n1)c1ccc(C(=O)N[C@@H](CCC(=O)O)C(=O)O)cc1 [MTX, Methotrexate]
- Effective rate (4 weeks): 47.2%
- Overall effectiveness: Improved, % of patients (4 weeks): 36.6%
- Overall effectiveness: Improved, number of patient (4 weeks): 52
- Overall effectiveness: No effect, % of patients (4 weeks): 52.8%
- Overall effectiveness: No effect, number of patient (4 weeks): 75
- Overall effectiveness: Obv. improved, % of patients (4 weeks): 10.6%
- Overall effectiveness: Obv. improved, number of patient (4 weeks): 15
- Effective rate (8 weeks): 64.8%
- Overall effectiveness: Improved, % of patients (8 weeks): 31.7%
- Overall effectiveness: Improved, number of patient (8 weeks): 45
- Overall effectiveness: No effect, % of patients (8 weeks): 35.2%
- Overall effectiveness: No effect, number of patient (8 weeks): 50
- Overall effectiveness: Obv. improved, % of patients (8 weeks): 33.1%
- Overall effectiveness: Obv. improved, number of patient (8 weeks): 47
- Effective rate (12 weeks): 77.5%
- Overall effectiveness: Improved, % of patients (12 weeks): 28.9%
- Overall effectiveness: Improved, number of patient (12 weeks): 41
- Overall effectiveness: No effect, % of patients (12 weeks): 22.5%
- Overall effectiveness: No effect, number of patient (12 weeks): 32
- Overall effectiveness: Obv. improved, % of patients (12 weeks): 48.6%
- Overall effectiveness: Obv. improved, number of patient (12 weeks): 69
- Effective rate (24 weeks): 81.7%
- Overall effectiveness: Improved, % of patients (24 weeks): 10.0%
- Overall effectiveness: Improved, number of patient (24 weeks): 6
- Overall effectiveness: No effect, % of patients (24 weeks): 18.3%
- Overall effectiveness: No effect, number of patient (24 weeks): 11
- Overall effectiveness: Obv. improved, % of patients (24 weeks): 71.7%
- Overall effectiveness: Obv. improved, number of patient (24 weeks): 43
- Changes in RA perimeters: GS-L (double blind, 4 weeks, mean): 12.70
- Changes in RA perimeters: GS-R (double blind, 4 weeks, mean): 12.05
- Changes in RA perimeters: ISJ (double blind, 4 weeks, mean): 2.47
- Changes in RA perimeters: ITJ (double blind, 4 weeks, mean): 6.83
- Changes in RA perimeters: MR (double blind, 4 weeks, mean): 33.52
- Changes in RA perimeters: NSJ (double blind, 4 weeks, mean): 1.92
- Changes in RA perimeters: NTJ (double blind, 4 weeks, mean): 3.53
- Changes in RA perimeters: PR (double blind, 4 weeks, mean): 1.33
- Changes in RA perimeters: GS-L (double blind, 8 weeks, mean): 17.55
- Changes in RA perimeters: GS-R (double blind, 8 weeks, mean): 16.68
- Changes in RA perimeters: ISJ (double blind, 8 weeks, mean): 4.03
- Changes in RA perimeters: ITJ (double blind, 8 weeks, mean): 9.53
- Changes in RA perimeters: MR (double blind, 8 weeks, mean): 41.03
- Changes in RA perimeters: NSJ (double blind, 8 weeks, mean): 2.97
- Changes in RA perimeters: NTJ (double blind, 8 weeks, mean): 5.52
- Changes in RA perimeters: PR (double blind, 8 weeks, mean): 1.94
- Changes in RA perimeters: GS, L (double blind, 12 weeks, mean): 22.03
- Changes in RA perimeters: GS, R (double blind, 12 weeks, mean): 21.85
- Changes in RA perimeters: ITJ (double blind, 12 weeks, mean): 11.59
- Changes in RA perimeters: MR (double blind, 12 weeks, mean): 46.08
- Changes in RA perimeters: NSJ (double blind, 12 weeks, mean): 3.92
- Changes in RA perimeters: NTJ (double blind, 12 weeks, mean): 6.73
- Changes in RA perimeters: PR (double blind, 12 weeks, mean): 2.60
- Changes in RA perimeters: TSJ (double blind, 12 weeks, mean): 5.08
- Effective rate [1]: 43.3%
- Improved, % of patients [1]: (31.7%)
- Improved, number of patients [1]: 19
- No effect, % of patients [1]: (56.7%)
- No effect, number of patients [1]: 34
- Obviously improved, % of patients [1]: (11.7%)
- Obviously improved, number of patients [1]: 7
- Effective rate [2]: 66.7%
- Improved, % of patients [2]: (31.7%)
- Improved, number of patients [2]: 19
- No effect, % of patients [2]: (33.3%)
- No effect, number of patients [2]: 20
- Obviously improved, % of patients [2]: (35.0%)
- Obviously improved, number of patients [2]: 21
- Effective rate [3]: 75.0%
- Improved, % of patients [3]: (26.7%)
- Improved, number of patients [3]: 16
- No effect, % of patients [3]: (25.0%)
- No effect, number of patients [3]: 15
- Obviously improved, % of patients [3]: (48.33%)
- Obviously improved, number of patients [3]: 29
- AGS 50% increased, % of cases (4 weeks): 5.0%
- AGS 50% increased, cases (4 weeks): 3
- CRP 50% reduced, % of cases (4 weeks): 16.7%
- CRP 50% reduced, cases (4 weeks): 10
- CRP Reduced to Norm., % of cases (4 weeks): 6.7%
- CRP Reduced to Norm., cases (4 weeks): 4
- ESR 50% reduced, % of cases (4 weeks): 30.0%
- ESR 50% reduced, cases (4 weeks): 18
- ESR Reduced to norm., % of cases (4 weeks): 26.7%
- ESR Reduced to norm., cases (4 weeks): 16
- ITJ 50% reduced, % of cases (4 weeks): 31.7%
- ITJ 50% reduced, cases (4 weeks): 19
- ITJ Disappeared, % of cases (4 weeks): 3.3%
- ITJ Disappeared, cases (4 weeks): 2
- MR 50% reduced, % of cases (4 weeks): 38.3%
- MR 50% reduced, cases (4 weeks): 23
- MR Disappeared, % of cases (4 weeks): 25.0%
- MR Disappeared, cases (4 weeks): 15
- NSJ 50% reduced, % of cases (4 weeks): 40.0%
- NSJ 50% reduced, cases (4 weeks): 24
- NSJ Disappeared, % of cases (4 weeks): 15.0%
- NSJ Disappeared, cases (4 weeks): 9
- RF 2 dilutions lower, % of cases (4 weeks): 13.3%
- RF 2 dilutions lower, cases (4 weeks): 8
- RF Reduced to norm., cases (4 weeks): 0
- AGS 50% increased, % of cases (8 weeks): 10.0%
- AGS 50% increased, cases (8 weeks): 6
- CRP 50% reduced, % of cases (8 weeks): 26.7%
- CRP 50% reduced, cases (8 weeks): 16
- CRP Reduced to Norm., % of cases (8 weeks): 25.0%
- CRP Reduced to Norm., cases (8 weeks): 15
- ESR 50% reduced, % of cases (8 weeks): 41.7%
- ESR 50% reduced, cases (8 weeks): 25
- ESR Reduced to norm., % of cases (8 weeks): 31.7%
- ESR Reduced to norm., cases (8 weeks): 19
- ITJ 50% reduced, % of cases (8 weeks): 43.3%
- ITJ 50% reduced, cases (8 weeks): 26
- ITJ Disappeared, % of cases (8 weeks): 3.3%
- ITJ Disappeared, cases (8 weeks): 2
- MR 50% reduced, % of cases (8 weeks): 53.3%
- MR 50% reduced, cases (8 weeks): 32
- MR Disappeared, % of cases (8 weeks): 21.7%
- MR Disappeared, cases (8 weeks): 13
- NSJ 50% reduced, % of cases (8 weeks): 55.0%
- NSJ 50% reduced, cases (8 weeks): 33
- NSJ Disappeared, % of cases (8 weeks): 20.0%
- NSJ Disappeared, cases (8 weeks): 12
- RF 2 dilutions lower, % of cases (8 weeks): 36.7%
- RF 2 dilutions lower, cases (8 weeks): 22
- RF Reduced to norm., cases (8 weeks): 0
- AGS 50% increased, % of cases (12 weeks): 15.0%
- AGS 50% increased, cases (12 weeks): 9
- CRP 50% reduced, % of cases (12 weeks): 33.3%
- CRP 50% reduced, cases (12 weeks): 20
- CRP Reduced to Norm., % of cases (12 weeks): 8.3%
- CRP Reduced to Norm., cases (12 weeks): 5
- ESR 50% reduced, % of cases (12 weeks): 51.7%
- ESR 50% reduced, cases (12 weeks): 31
- ESR Reduced to norm., % of cases (12 weeks): 33.3%
- ESR Reduced to norm., cases (12 weeks): 20
- ITJ 50% reduced, % of cases (12 weeks): 51.7%
- ITJ 50% reduced, cases (12 weeks): 31
- ITJ Disappeared, % of cases (12 weeks): 15.0%
- ITJ Disappeared, cases (12 weeks): 9
- MR 50% reduced, % of cases (12 weeks): 60.0%
- MR 50% reduced, cases (12 weeks): 36
- MR Disappeared, % of cases (12 weeks): 25.0%
